Assay results taken from US20050112573A1, “Method of detecting toxic substance” (priority 2001, published 2005).

Tested on: yeast genes (level of expressed mRNA)
Test: DNA chip analysis of expressed mRNA of yeast genes after 2 h culture with a toxic chemical substance
Type: cell-based, Saccharomyces cerevisiae S288C
Settings: for The level of expressed mRNA in the presence of chemical substance/: ratio to no chemical; for The level of expressed mRNA in the presence of chemical substance/ (ratio to absence): transport facilitation protein gene; for The level of expressed mRNA in the presence of chemical substance/ (ratio to absence of chemical substance): stress protein genes, DNA chip
In short: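 S. cerevisiae S288C in YPD at 25 °C was exposed at log phase for 2 h to a growth-inhibiting, non-lethal concentration of the chemical. Poly(A) mRNA was reverse-transcribed with Cy3- or Cy5-dUTP and hybridized to a whole-genome yeast DNA chip (65 °C, >12 h). Values are fluorescence ratios versus untreated cells.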

For sodium dodecylbenzosulfonate [(17)], the “The level of expressed mRNA in the presence of chemical substance/” value (yeast gene YNL240C) was 0.8, the “The level of expressed mRNA in the presence of chemical substance/in the absence of chemical substance” value (yeast gene YNL241C) was 1.0 and the “The level of expressed mRNA in the presence of chemical substance/ (ratio to absence)” value (yeast gene YNL259C) was 2.6. For the same substance, the “The level of expressed mRNA in the presence of chemical substance/” value (yeast gene YNL260C) was 0.9, the “The level of expressed mRNA in the presence of chemical substance/in the absence of chemical substance” value (yeast gene YNL274C) was 1.4 and the “The level of expressed mRNA in the presence of chemical substance/” value (yeast gene YNL285W) was 1.2. For the same substance, the “The level of expressed mRNA in the presence of chemical substance/” value (yeast gene YNL293W) was 1.0, the “The level of expressed mRNA in the presence of chemical substance/in the absence of chemical substance” value (yeast gene YNL331C) was 1.7 and the “The level of expressed mRNA in the presence of chemical substance/in the absence of chemical substance” value (yeast gene YNL332W) was 1.0. The “The level of expressed mRNA in the presence of chemical substance/The level of expressed mRNA in the absence of chemical substance” value (yeast gene YNL333W) was 1.4, the “The level of expressed mRNA in the presence of chemical substance/The level of expressed mRNA in the absence of chemical substance” value (yeast gene YNR010W) was 1.7 and the “The level of expressed mRNA in the presence of chemical substance/” value (yeast gene YNR061C) was 1.6. The “The level of expressed mRNA in the presence of chemical substance/The level of expressed mRNA in the absence of chemical substance” value (yeast gene YNR069C) was 1.1, the “The level of expressed mRNA in the presence of chemical substance/ (in its absence), gene YNR072W” value (yeast gene YNR072W, ratio of DNA chip fluorescence intensity to that without chemical substance) was 1.3 and the “The level of expressed mRNA in the presence of chemical substance/” value (yeast gene YNR074C) was 0.9. For the same substance, the “The level of expressed mRNA in the presence of chemical substance/ (ratio to absence of chemical substance)” value (yeast gene YNR076W) was 1.5, the “The level of expressed mRNA in the presence of chemical substance/The level of expressed mRNA in the absence of chemical substance” value (yeast gene YOL013C) was 1.1 and the “The level of expressed mRNA in the presence of chemical substance/” value (yeast gene YOL084W) was 1.3. For the same substance, the “The level of expressed mRNA in the presence of chemical substance/ (ratio to absence), gene YOL096C” value (yeast gene YOL096C, mitochondria-located protein genes, 2 h culture with chemical) was 1.2, the “The level of expressed mRNA in the presence of chemical substance/ (in its absence), gene YOL096C” value (yeast gene YOL096C, ratio of DNA chip fluorescence intensity to that without chemical substance) was 1.2 and the “The level of expressed mRNA in the presence of chemical substance/ (in its absence), gene YOL108C” value (yeast gene YOL108C, ratio of DNA chip fluorescence intensity to that without chemical substance) was 1.5. For the same substance, the “The level of expressed mRNA in the presence of chemical substance/ (in its absence), gene YOL116W” value (yeast gene YOL116W, ratio of DNA chip fluorescence intensity to that without chemical substance) was 1.1, the “The level of expressed mRNA in the presence of chemical substance/ (ratio to absence)” value (yeast gene YOL119C) was 1.4 and the “The level of expressed mRNA in the presence of chemical substance/in the absence of chemical substance” value (yeast gene YOL151W) was 4.0. For the same substance, the “The level of expressed mRNA in the presence of chemical substance/ (ratio to absence)” value (yeast gene YOL158C) was 1.4, the “The level of expressed mRNA in the presence of chemical substance/” value (yeast gene YOL159C) was 2.0 and the “The level of expressed mRNA in the presence of chemical substance/ (ratio to absence of chemical substance)” value (yeast gene YOL161C) was 1.1. The “The level of expressed mRNA in the presence of chemical substance/ (ratio to absence)” value (yeast gene YOL163W) was 0.8, the “The level of expressed mRNA in the presence of chemical substance/The level of expressed mRNA in the absence of chemical substance” value (yeast gene YOL164W) was 1.1 and the “The level of expressed mRNA in the presence of chemical substance/in the absence of chemical substance” value (yeast gene YOL165C) was 1.6. The “The level of expressed mRNA in the presence of chemical substance/” value (yeast gene YOR007C) was 1.2, the “The level of expressed mRNA in the presence of chemical substance/ (ratio to absence of chemical substance)” value (yeast gene YOR008C) was 0.8 and the “The level of expressed mRNA in the presence of chemical substance/ (ratio to absence of chemical substance)” value (yeast gene YOR009W) was 0.9. For the same substance, the “The level of expressed mRNA in the presence of chemical substance/ (ratio to absence of chemical substance)” value (yeast gene YOR010C) was 1.4, the “The level of expressed mRNA in the presence of chemical substance/ (ratio to absence)” value (yeast gene YOR035C) was 1.6 and the “The level of expressed mRNA in the presence of chemical substance/The level of expressed mRNA in the absence of chemical substance” value (yeast gene YOR036W) was 1.6. For the same substance, the “The level of expressed mRNA in the presence of chemical substance/ (in its absence), gene YOR103C” value (yeast gene YOR103C, ratio of DNA chip fluorescence intensity to that without chemical substance) was 1.1, the “The level of expressed mRNA in the presence of chemical substance/The level of expressed mRNA in the absence of chemical substance” value (yeast gene YOR117W) was 1.4 and the “The level of expressed mRNA in the presence of chemical substance/in the absence of chemical substance” value (yeast gene YOR120W) was 1.3. The “The level of expressed mRNA in the presence of chemical substance/The level of expressed mRNA in the absence of chemical substance” value (yeast gene YOR124C) was 1.0, the “The level of expressed mRNA in the presence of chemical substance/ (ratio to absence)” value (yeast gene YOR130C) was 1.5 and the “The level of expressed mRNA in the presence of chemical substance/The level of expressed mRNA in the absence of chemical substance” value (yeast gene YOR132W) was 1.2. The “The level of expressed mRNA in the presence of chemical substance/in the absence of chemical substance” value (yeast gene YOR153W) was 2.5, the “The level of expressed mRNA in the presence of chemical substance/The level of expressed mRNA in the absence of chemical substance” value (yeast gene YOR157C) was 1.2 and the “The level of expressed mRNA in the presence of chemical substance/ (in its absence), gene YOR180C” value (yeast gene YOR180C, ratio of DNA chip fluorescence intensity to that without chemical substance) was 0.9. For the same substance, the “The level of expressed mRNA in the presence of chemical substance/The level of expressed mRNA in the absence of chemical substance” value (yeast gene YOR181W) was 1.1 and the “The level of expressed mRNA in the presence of chemical substance/The level of expressed mRNA in the absence of chemical substance” value (yeast gene YOR185C) was 0.9.
